In ChEMBL document CHEMBL3301361, “Experimental in vitro DMPK and physicochemical data on a set of publicly disclosed compounds”:
In brackets after ≈: the same amount, converted by molar mass.

Legend:
physchem [1] = experiment: physchem
physchem [2] = settings: octan-1-ol/water
in vitro [3] = settings: SD, HW or BN, rat, plasma
in vitro [4] = settings: human, plasma
in vitro [5] = settings: Beagle, dog, plasma
in vitro [6] = settings: human, hepatocytes
in vitro [7] = settings: human
physchem [8] = settings: pH 7.4 buffer
in vitro [9] = settings: hepatocytes

| Structure (SMILES) | pKa (physchem [1]) | logD (physchem [2]; pH 7.4, LogD7.4) | other results |
| --- | --- | --- | --- |
| Cc1nc2n(c(=O)c1CCN1CCC(c3noc4cc(F)ccc34)CC1)CCCC2 [RISPERIDONE] | 8.49 | – | logD (physchem [2]; pH 7.4): 2.05; fraction unbound at 5 h (in vitro [3]): 0.0544 |
| COc1ccnc(NC2CCN(C(=O)c3ccc(Cl)cc3)CC2)c1 | 7.2 | 2.82 | – |
| CC(C)(C)NC(=O)NCCN1CCN(CC(=O)Nc2cc(Cl)cc(Cl)c2)CC1 | – | – | fraction unbound at 5 h (in vitro [4]; PPB): 0.0521; fraction unbound at 5 h (in vitro [5]): 0.0556 |
| CC(C)n1c(/C=C/C(O)CC(O)CC(=O)O)c(-c2ccc(F)cc2)c2ccccc21 (stereo not drawn) [FLUVASTATIN] | – | – | fraction unbound at 5 h (in vitro [4]): 0.0048; fraction unbound at 5 h (in vitro [5]): 0.0028 |
| CC12CC3CC(C)(C1)CC(N)(C3)C2 [MEMANTINE] | 10.7 | 0.06 | – |
| NC1=Nc2ccccc2Sc2ccccc21 | 7.2 | – | hepatocyte CLint (in vitro [6]): 7.94 µL/min/1e6 cells |
| O=C(NCC12CC3CC(CC(C3)C1)C2)c1cc(OCCCNCCCO)ccc1Cl | 9.5 | 1.41 | microsomal CLint (in vitro [7]; liver microsomes): 27 µL/min/mg |
| CCCSc1nc(N)c2ncn([C@@H]3O[C@H](CO)[C@@H](O)[C@H]3O)c2n1 | – | – | fraction unbound at 5 h (in vitro [4]; PPB): 0.483; fraction unbound at 5 h (in vitro [5]): 0.591 |
| CCOC(=O)N1CCC(Nc2cc(OC)ccn2)CC1 | 7.2 | – | microsomal CLint (in vitro [7]; liver microsomes): 4 µL/min/mg |
| CC(C)Cc1nn(C)c(=O)c2c(SCCCO)n(Cc3cccc4ccccc34)cc12 | – | – | fraction unbound at 5 h (in vitro [4]; PPB): 0.0027; fraction unbound at 5 h (in vitro [5]): 0.0013 |
| CNCC[C@@H](Oc1cc(C(F)(F)F)ccc1C#N)c1ccccc1 | 10.4 | 1.3 | microsomal CLint (in vitro [7]; microsomes): < 3 µL/min/mg |
| CCc1cc(C(N)=S)ccn1 [ETHIONAMIDE] | 4.4 | 1.52 | fraction unbound at 5 h (in vitro [3]): 0.54 |
| COc1ccc(C2(c3cccc(-c4cncnc4)c3)N=C(C)C(N)=N2)cc1C (stereo not drawn) | 5.83 | – | fraction unbound at 5 h (in vitro [4]; PPB): 0.062; fraction unbound at 5 h (in vitro [3]): 0.271 |
| N#Cc1ccc(C(=O)N2CCC3(CC2)N=C(N)c2c(F)ccc(F)c2N3)cc1 | 8.15 | 0.86 | fraction unbound at 5 h (in vitro [4]; PPB): 0.285 |
| CN(C)CCN1CCN(c2cc(C(=O)NC[C@H]3CC[C@H](CNC(=O)OC(C)(C)C)CC3)c3ccccc3n2)CC1 | – | – | fraction unbound at 5 h (in vitro [5]): 0.0293 |
| Cc1ccnc(NCc2ccccc2)c1 | 7 | 3.08 | – |
| CC(C)(C)NC(=O)[C@@H]1C[C@@H]2CCCC[C@@H]2CN1C[C@@H](O)[C@H](Cc1ccccc1)NC(=O)[C@H](CC(N)=O)NC(=O)c1ccc2ccccc2n1 | 7.14 | – | solubility thermodynamic (physchem [8]): 36.3 µM (≈ 24.4 µg/mL); fraction unbound at 5 h (in vitro [4]; PPB): 0.0114; fraction unbound at 5 h (in vitro [3]): 0.0048 |
| CN(C(=O)Cc1ccc(S(=O)(=O)N(C)C)cc1)C1CCN(CCC(c2ccccc2)c2ccccc2)CC1 | 8.1 | – | – |
| CCOC(=O)N1CCC(Nc2cc(Cl)ccn2)CC1 | 5.3 | – | – |
| c1ccc(CC2=NCCN2)cc1 [TOLAZOLINE] | 10.7 | – | – |
| O=C(NCC12CC3CC(CC(C3)C1)C2)c1cc(CC2CCNCC2)ccc1Cl | 10.1 | 1.49 | fraction unbound at 5 h (in vitro [4]; PPB): 0.0872 |
| O=C(O)COc1ccc(Cl)cc1CN1CCC(S(=O)(=O)c2ccccc2)CC1 | 7.8 | 0.48 | – |

Continued, in another order:

| pKa (physchem [1]) | logD (physchem [2]; pH 7.4, LogD7.4) | Structure (SMILES) | other results |
| --- | --- | --- | --- |
| 9 | 0.66 | N#Cc1ccc(C(=O)N2CCC3(CC2)N=C(N)c2c(F)cccc2N3)cc1 | – |
| 9.69 | 0.2 | C=CCOc1ccccc1OCC(O)CNC(C)C (stereo not drawn) [OXPRENOLOL] | – |
| 8.4 | 0.79 | N#Cc1ccc(C(=O)N2CCC3(CC2)N=C(N)c2c(F)ccc(F)c2N3)cn1 | fraction unbound at 5 h (in vitro [4]; PPB): 0.134 |
| 3.2 | 3.03 | CC(=O)Nc1ccc(CNc2[nH]nc3ccnc(Oc4ccccc4)c23)cc1 | microsomal CLint (in vitro [7]; liver microsomes): 12 µL/min/mg |
| 8.73 | 0.91 | NC1=NC(c2cccs2)Nc2cccc(F)c21 (stereo not drawn) | – |
| 8.75 | 2.67 | O=C(CCCN1CCC(O)(c2ccc(Cl)cc2)CC1)c1ccc(F)cc1 [HALOPERIDOL] | solubility thermodynamic (physchem [8]): 50.1 µM (≈ 18.8 µg/mL); fraction unbound at 5 h (in vitro [3]): 0.186 |
| – | 3.53 | C[C@H](CO)Nc1nc(SCc2cccc(Cl)c2F)nc2[nH]c(=O)sc12 | solubility thermodynamic (physchem [8]): 1 µM (≈ 0.401 µg/mL); fraction unbound at 5 h (in vitro [5]): 0.0005 |
| 2.7 | 2.23 | CON(C)C(=O)c1c(Cn2c(C)nc(Cl)c2Cl)sc2c1c(=O)n(C)c(=O)n2CC(C)C | solubility thermodynamic (physchem [8]): 513 µM (≈ 250 µg/mL) |
| 9.1 | 2.62 | O=C(CN1C2=NCCN2c2ccccc21)c1ccc(Cl)cc1 | fraction unbound at 5 h (in vitro [4]; PPB): 0.339; microsomal CLint (in vitro [7]; microsomes): 4 µL/min/mg |
| 9 | – | CCOC(=O)N1CCC2(CC1)N=C(N)c1c(Cl)cccc1N2 | – |
| 9.91 | 3.6 | CC(C)c1nc2ccc(-c3ccc(F)cc3)cc2c(=O)n1C[C@H]1CCCN(C(C)C)C1 | solubility thermodynamic (physchem [8]): 537 µM (≈ 226 µg/mL); microsomal CLint (in vitro [7]; microsomes): 12.9 µL/min/mg; hepatocyte CLint (in vitro [9]): 29.5 µL/min/1e6 cells |
| 7.3 | 3.82 | CCCCc1nc2c(N)nc3ccccc3c2n1CC(C)C | fraction unbound at 5 h (in vitro [4]; PPB): 0.062; fraction unbound at 5 h (in vitro [3]): 0.0307; microsomal CLint (in vitro [7]; liver microsomes): < 3 µL/min/mg |
| – | 4.36 | CC(C)Cn1c(=O)n(C)c(=O)c2c(SCCCO)n(Cc3cccc4ccccc34)cc21 | fraction unbound at 5 h (in vitro [5]): 0.0034 |
